Source: US20020193252A1, “Weeding method with sodium hydrogen carbonate” (The Hiraoka Environmental Science Laboratory, priority 2001, published 2002)
Like-named read-outs stand apart in the source and are kept apart here.

Tests used:
[1] = tested on: Equisetum arvense and Taraxacum; settings: 400 mL/m^2; for Killing Rate of Weeds: after 9 days from spraying
Description: (§1) A mixture of Equisetum arvense and Taraxacum having an average height of about 20 cm and grass having an average height of about 10 cm in a test field having an area of 0.5 m^2 in Yokohama-city, Kanagawa-prefecture, Japan were subjected to a field weeding test by spraying an aqueous solution of sodium hydrogen carbonate with a watering pot in the last third of October.
(§2) An aqueous solution of sodium hydrogen carbonate having a concentration of 2.5 weight %, 5.0 weight %, 8.0 weight % and 10.0 weight %, respectively, was uniformly sprayed to a mixture of Equisetum arvense and Taraxacum and grass in an amount of 400 mL/m^2 for each. […] The killing degree of the weeds was measured by the naked eye after 9 days from spraying to determine the killing rate of weeds in the same manner as in EXAMPLE 1.

grass = settings: 400 mL/m^2; for Killing Rate of Weeds: after 9 days from spraying
Description: as §1, §2

[2] = saturated aqueous solution
[3] = tested on: Weeds mainly consisting of Japanese nutmeg, Coix lacryma-jobi, Pueraria lobata and Solidago serotina; settings: 70 g/L, 16 litter/m^2, 150 kgf/cm^2, 60 second/m^2; weeds about 60 cm; leaves turned yellow or black
[4] = tested on: Equisetaceae weeds, Leguminosae weeds and wide leaves weeds
[5] = tested on: Equisetum arvense and Taraxacum; settings: 400 ml/m^2 sprayed on days 0,7,14,21, weeds cut on day 54
Description: (§3) A mixture of Equisetum arvense and Taraxacum having an average height of about 5 cm and Imperata cylindrica having an average height of about 5 cm in a test field having an area of 0.5 m^2 in Yokohama-city, Kanagawa-prefecture, Japan were subjected to the following field weeding test from the last third of July to the first third of November. […] Incidentally, the area ratio of weeds was assumed as 100% when the weeds proliferated to such an extent that they completely concealed the soil surface.
(§4) A saturated aqueous solution of sodium hydrogen carbonate was sprayed to each test field in an amount of 400 ml/m^2 by a watering pot, and then sprayed in the same way after 7 days, 14 days and 21 days, respectively. The area ratio and average height of weeds were measured by the naked eye after 26 days from the start of spraying. The weeds were totally cut after 54 days from the start of spraying. Thereafter, the weeds were left to grow without spraying an aqueous solution of sodium hydrogen carbonate. The area ratio and average height of weeds were measured by the naked eye after 64 days, 67 days, 73 days, 78 days, 86 days, 91 days and 95 days, respectively, from the start of spraying. For comparison, a mixture of Equisetum arvense and Taraxacum and Imperata cylindrica, to which an aqueous solution of sodium hydrogen carbonate was not sprayed, were subjected to the same measurement with respect to an area ratio and an average height.

Imperata cylindrica = settings: 400 ml/m^2 sprayed on days 0,7,14,21, weeds cut on day 54
Description: as §3, §4

[6] = tested on: Gramineae weeds except for grass (Zoysia japonica); settings: spraying once a week
[7] = tested on: Weeds mainly consisting of Pueraria lobata, Cayratia japonica and Solidago serotina; settings: 80° C., 140 g/L, 16 litter/m^2, 150 kgf/cm^2, 60 second/m^2; weeds about 60 cm; leaves turned black
[8] = 2.5-10.0 weight % solution, last third of October

O=C([O-])O.[Na+] [sodium hydrogen carbonate]
time after spraying from which part of the weeds started to die with leaves turned black [1, 8]: 2 to 3 days | Killing Rate of Weeds ([1]; concentration 5.0 weight %): 30% | Killing Rate of Weeds ([1]; concentration 8.0 weight %): 65% | Killing Rate of Weeds ([1]; concentration 10.0 weight %): 80% | Killing Rate of Weeds ([1]; concentration 25 weight %): 10% | time after spraying from which part of grass started to die with leaves turned yellow (grass; [8]): 2 to 3 days | Killing Rate of Weeds (grass; concentration 5.0 weight %): 50% | Killing Rate of Weeds (grass; concentration 8.0 weight %): 70% | Killing Rate of Weeds (grass; concentration 10.0 weight %): 85% | Killing Rate of Weeds (grass; concentration 25 weight %): 40% | pH [2]: about 8.2 | state of weeds the next day of treatment [3]: killed | time after spraying until weeds start to die ([4]; in autumn): 4 to 5 days | time after spraying until weeds start to die ([4]; in summer): 1 to 2 days | Area Ratio of Weeds ([5]; 0 days passed): 50% | Average Height ([5]; 0 days passed): 5 cm | Area Ratio of Weeds ([5]; 7 days passed): 5% | Average Height ([5]; 7 days passed): 0 cm | Area Ratio of Weeds ([5]; 14 days passed): 5% | Average Height ([5]; 14 days passed): 0 cm | Area Ratio of Weeds ([5]; 21 days passed): 5% | Average Height ([5]; 21 days passed): 0 cm | Area Ratio of Weeds ([5]; 26 days passed): 5% | Average Height ([5]; 26 days passed): 0 cm | Area Ratio of Weeds ([5]; 54 days passed): 0% | Average Height ([5]; 54 days passed): 0 cm | Area Ratio of Weeds ([5]; 64 days passed): 0% | Average Height ([5]; 64 days passed): 0 cm | Area Ratio of Weeds ([5]; 67 days passed): 0% | Average Height ([5]; 67 days passed): 0 cm | Area Ratio of Weeds ([5]; 73 days passed): 5% | Average Height ([5]; 73 days passed): 5 cm | Area Ratio of Weeds ([5]; 78 days passed): 10% | Average Height ([5]; 78 days passed): 7 cm | Area Ratio of Weeds ([5]; 86 days passed): 10% | Average Height ([5]; 86 days passed): 10 cm | Area Ratio of Weeds ([5]; 91 days passed): 20% | Average Height ([5]; 91 days passed): 10 cm | Area Ratio of Weeds ([5]; 95 days passed): 20% | Average Height ([5]; 95 days passed): 10 cm | Area Ratio of Weeds (Imperata cylindrica; 0 days passed): 5% | Average Height (Imperata cylindrica; 0 days passed): 5 cm | Area Ratio of Weeds (Imperata cylindrica; 7 days passed): 10% | Average Height (Imperata cylindrica; 7 days passed): 15 cm | Area Ratio of Weeds (Imperata cylindrica; 14 days passed): 30% | Average Height (Imperata cylindrica; 14 days passed): 25 cm | Area Ratio of Weeds (Imperata cylindrica; 21 days passed): 50% | Average Height (Imperata cylindrica; 21 days passed): 45 cm | Area Ratio of Weeds (Imperata cylindrica; 26 days passed): 50% | Average Height (Imperata cylindrica; 26 days passed): 50 cm | Area Ratio of Weeds (Imperata cylindrica; 54 days passed): 0% | Average Height (Imperata cylindrica; 54 days passed): 0 cm | Area Ratio of Weeds (Imperata cylindrica; 64 days passed): 0% | Average Height (Imperata cylindrica; 64 days passed): 0 cm | Area Ratio of Weeds (Imperata cylindrica; 67 days passed): 0% | Average Height (Imperata cylindrica; 67 days passed): 0 cm | Area Ratio of Weeds (Imperata cylindrica; 73 days passed): 0% | Average Height (Imperata cylindrica; 73 days passed): 0 cm | Area Ratio of Weeds (Imperata cylindrica; 78 days passed): 5% | Average Height (Imperata cylindrica; 78 days passed): 5 cm | Area Ratio of Weeds (Imperata cylindrica; 86 days passed): 5% | Average Height (Imperata cylindrica; 86 days passed): 7 cm | Area Ratio of Weeds (Imperata cylindrica; 91 days passed): 5% | Average Height (Imperata cylindrica; 91 days passed): 7 cm | Area Ratio of Weeds (Imperata cylindrica; 95 days passed): 5% | Average Height (Imperata cylindrica; 95 days passed): 10 cm | duration of spraying until weeds start to die [6]: 2-3 weeks | state of weeds the next day of treatment [7]: killed
